According to the supplement of paper PMC10702517:
± gives the standard deviation.

Tests used:
[1] = chemical recovery by SPE of plasma after PDMS sampling; higher = better extraction; details: pooled human plasma, extraction method: HLB SPE of plasma after PES
[2] = chemical recovery from spiked human plasma; higher = better extraction; details: pooled human plasma
[3] = extraction method: SPE only (HLB 96-well), PES comparison experiment
[4] = extraction method: solvent precipitation (ACN + hexane)
[5] = extraction method: PES+SPE (3 d PDMS equilibration then HLB SPE)
[6] = extraction method: SPE only (HLB 96-well)
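For chemical recovery by SPE of plasma after PDMS sampling in this document: over 400 spiked chemicals quantified by LC-HRMS or GC-HRMS via internal standard calibration, recovery relative to spike mix added to unspiked plasma extract to correct matrix effects.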

Row | SMILES | chemical recovery by SPE of plasma ([1]; equilibration time (d): 3) [%] | chemical recovery by SPE of plasma ([1]; equilibration time (d): 6) [%] | chemical recovery [2, 3] [%] | chemical recovery by SPE of plasma ([1]; equilibration time (d): 1) [%] | chemical recovery [2, 4] [%] | chemical recovery [2, 5] [%] | chemical recovery [2, 6] [%]
1 | CCc1cccc(C)c1N(C(=O)CS(=O)(=O)O)[C@@H](C)C(=O)O | 28.5 ± 9.3 | 33.9 ± 4.1 |  |  |  |  | 
2 | CCc1cccc(C)c1NC(=O)CS(=O)(=O)O | 40.4 ± 2 | 40.3 ± 9.3 | 42.9 ± 4.2 | 37.4 ± 8.2 |  |  | 
3 | CO/N=C(/C(=O)O)c1ccccc1CO/N=C(\C)c1cccc(C(F)(F)F)c1 | 38.9 ± 4.6 | 33.6 ± 9.2 | 35.7 ± 5.6 |  | 78.6 ± 6.2 |  | 
4 | NC(=O)c1c(Cl)c(Cl)cc(C(=O)O)c1Cl | 49.6 ± 1.4 | 45.4 ± 6.4 | 52.8 ± 4.5 |  | 65.4 ± 4.9 | 25.4 ± 4.9 | 30.6 ± 4.5
5 | CCCCn1cc[n+](C)c1 [1-Butyl-3-methyl-imidazolium] | 3.98 ± 3.6 | 4.03 ± 4.2 | 3.93 ± 4.5 | 2.28 ± 2 |  |  | 3.53 ± 1.7
6 | Oc1ccc(Cl)cc1Cl [2,4-Dichlorophenol] | 56.9 ± 4.3 | 50.9 ± 3.1 | 54.2 ± 5.9 | 49.3 ± 11 |  | 43.4 ± 3.3 | 40.3 ± 3.3
7 | O=[N+]([O-])c1ccc(O)c([N+](=O)[O-])c1 [2,4-Dinitrophenol] | 52 ± 3 | 50.9 ± 4.5 | 59.8 ± 4.8 | 49.4 ± 8.9 | 79.6 ± 6.8 | 52.7 ± 7.5 | 48.7 ± 6.6
8 | O=S(=O)(O)c1nc2ccccc2s1 [2-Benzothiazolesulfonic acid] | 42.3 ± 0.92 | 39.9 ± 5.4 | 46 ± 4.3 | 31.8 ± 4.8 | 88.4 ± 4.2 |  | 61.2 ± 20
9 | O=S(=O)(O)c1cccc2ccc(O)cc12 [2-Naphthol-8-sulfonic acid] | 47.9 ± 0.58 | 45 ± 6.4 | 44.7 ± 5.6 |  | 74.1 ± 3.9 |  | 61.3 ± 20
10 | Oc1ccccc1-c1ccccc1 [2-Phenylphenol] | 3.47 ± 0.42 | 3.11 ± 1.4 |  | 4.5 ± 4 |  |  | 19.9 ± 4.2
11 | Nc1ccc(Sc2ccc(N)cc2)cc1 [4,4'-Thiodianiline] | 10.6 ± 2.5 | 7.77 ± 1.4 | 16.5 ± 2 | 11.7 ± 2.8 | 42.1 ± 9.6 | 1.15 ± 0.088 | 8.97 ± 1.9
12 | Oc1ccc(Cl)cc1 [4-Chlorophenol] | 66.4 ± 6.9 | 59.4 ± 4.3 | 60.1 ± 5.1 | 60 ± 12 | 98 ± 9.7 | 33.9 ± 11 | 35.2 ± 7.2
13 | O=c1cc(O)c2ccccc2o1 [4-Hydroxycoumarin] | 64.3 ± 4.7 | 78 ± 15 | 13.2 ± 3.1 | 69.3 ± 16 |  |  | 
14 | CCC(=C(c1ccc(O)cc1)c1ccc(OCCN(C)C)cc1)c1ccccc1 [4-Hydroxytamoxifen] | 7.29 ± 0.7 | 3.71 ± 1.9 | 42.6 ± 12 | 13.5 ± 3.3 | 62.1 ± 1.3 | 11.4 ± 2.5 | 46.8 ± 8.9
15 | O=[N+]([O-])c1ccc(O)cc1 [4-Nitrophenol] | 59.3 ± 2.9 | 55.1 ± 4.6 | 64.5 ± 4.6 | 57.4 ± 7.2 | 65.1 ± 6.7 | 48.9 ± 3 | 41.5 ± 6.3
16 | CC(C)(C)c1ccc(S(N)(=O)=O)cc1 [4-tert-Butylbenzenesulfonamide] | 17 ± 1.5 | 11.3 ± 1.4 |  | 11 ± 0.85 |  |  | 
17 | C[C@H]1C[C@@H]2[C@H]([C@@H](O)C[C@@]3(C)[C@H]2CC[C@]3(O)C(=O)CO)[C@@]2(C)C=CC(=O)C=C12 [6alpha Methylprednisolone] | 57.1 ± 4.7 | 51.1 ± 6.5 | 53.6 ± 7.5 | 59.2 ± 5.8 |  |  | 
18 | C=Cc1c2ccccc2cc2ccccc12 [9-Vinylanthracene] | 3.05 ± 5.3 | 2.42 ± 4.2 |  | 3.04 ± 5.3 |  | 42.05 ± 0.27 | 2.31 ± 0.48
19 | NC(=O)N1c2ccccc2C(O)C(O)c2ccccc21 (centres undefined) [10,11-Dihydro-10,11-dihydroxycarbamazepine] | 69.9 ± 7.5 |  | 48.4 ± 4.8 |  | 71 ± 2.8 | 45.5 ± 5.2 | 44.9 ± 4.7
20 | C1=Cc2cccc3cccc1c23 [Acenaphthylene] | 10.5 ± 4.6 | 2.28 ± 8 |  |  |  |  | 3.51 ± 0.93
21 | CC1=CC(=O)NS(=O)(=O)O1 [Acesulfame] | 1.86 ± 0.99 | 8.53 ± 4.2 |  |  | 93.4 ± 4.7 | 11.2 ± 1.4 | 19.4 ± 5.8
22 | CC(=O)Nc1ccc(S(=O)(=O)Nc2cc(C)on2)cc1 [Acetyl-sulfamethoxazole] | 51.4 ± 3.5 | 49.3 ± 6.2 | 51.5 ± 4.3 | 51.7 ± 7.1 | 72 ± 3.1 | 42.7 ± 3.9 | 37.2 ± 3.4
23 | CCCSc1ccc2[nH]c(NC(=O)OC)nc2c1 [Albendazole] | 3.53 ± 0.36 | 2.28 ± 0.42 | 37.8 ± 5.9 | 5.86 ± 0.39 | 59.7 ± 5.1 | 3.61 ± 0.98 | 35.7 ± 3.7

Row | SMILES | chemical recovery by SPE of plasma ([1]; equilibration time (d): 3) [%] | chemical recovery by SPE of plasma ([1]; equilibration time (d): 6) [%] | chemical recovery [2, 3] [%] | chemical recovery by SPE of plasma ([1]; equilibration time (d): 1) [%] | chemical recovery [2, 4] [%] | chemical recovery [2, 5] [%] | chemical recovery [2, 6] [%]
24 | Brc1ccc(Oc2ccc(Br)cc2Br)c(Br)c1 [BDE47] | 1.56 ± 0.066 | 1.34 ± 0.21 |  | 1.38 ± 1 |  |  | 
25 | c1cc2ccc3ccc4ccc5cccc6c(c1)c2c3c4c56 [Benzo(ghi)perylene] | 1.28 ± 1.1 | 1.37 ± 0.46 |  | 2.59 ± 4.5 |  |  | 
26 | c1ccc2c(c1)-c1ccc3ccc4cccc5cc-2c1c3c45 [Indeno(1,2,3-cd)pyrene] | 1.3 ± 0.43 | 1.16 ± 0.33 |  | 1.57 ± 0.15 |  |  | 
27 | COP(=O)(OC)OC [Trimethylphosphate] |  |  |  |  | 0.912 ± 1.3 |  | 3.11 ± 2.1
28 | CCCN(CCC)CCC [Tripropylamine] |  |  |  |  | 2.09 ± 3.1 |  | 7.35 ± 6.9
29 | O=c1n(CC(Br)CBr)c(=O)n(CC(Br)CBr)c(=O)n1CC(Br)CBr (centres undefined) [Tris(2,3-dibromopropyl)isocyanurate] |  |  |  |  |  |  | 3.25 ± 5.6
30 | O=P(OCC(Br)CBr)(OCC(Br)CBr)OCC(Br)CBr (centres undefined) [Tris(2,3-dibromopropyl)phosphate] |  |  |  |  |  | 60.7 ± 8 | 14.8 ± 3.3
31 | CCCCC(CC)COP(=O)(OCC(CC)CCCC)OCC(CC)CCCC (centres undefined) [Tris(2-ethylhexl)phosphate] |  |  | 4.16 ± 1.6 |  | 107 ± 4.1 |  | 6.76 ± 2.9
32 | COc1nc(NC(=O)NS(=O)(=O)c2ccccc2C(F)(F)F)nc(C(F)(F)F)n1 [Tritosulfuron] |  |  |  |  | 76.1 ± 3.9 | 72.3 ± 6.7 | 67.7 ± 4.7
33 | CC(C)(c1ccccc1)c1cc(-n2nc3ccccc3n2)c(O)c(C(C)(C)c2ccccc2)c1 [UV-234] |  |  |  |  |  |  | 0.688 ± 0.28
34 | CC(C)(C)c1cc(-n2nc3ccccc3n2)c(O)c(C(C)(C)C)c1 [UV-320] |  |  |  |  |  |  | 3.34 ± 1
35 | CC(C)(C)c1cc(-n2nc3ccc(Cl)cc3n2)c(O)c(C(C)(C)C)c1 [UV-327] |  |  |  |  |  |  | 1.82 ± 1.6
36 | CCC(C)(C)c1cc(-n2nc3ccccc3n2)c(O)c(C(C)(C)CC)c1 [UV-328] |  |  |  |  |  |  | 1.74 ± 0.56
37 | CC(C)(C)CC(C)(C)c1cc(-n2nc3ccccc3n2)c(O)c(C(C)(C)c2ccccc2)c1 [UV-928] |  |  |  |  |  |  | 0.72 ± 0.29
38 | CCCCCCCCOc1ccc(-c2nc(-c3ccc(C)cc3C)nc(-c3ccc(C)cc3C)n2)c(O)c1 [UV-1164] |  |  |  |  |  |  | 0.287 ± 0.085
39 | CCCCCCOC(=O)c1ccccc1C(=O)c1ccc(N(CC)CC)cc1O [Uvinul-A-Plus] |  |  |  |  |  |  | 26.5 ± 9.6
40 | CN(C)CC(c1ccc(O)cc1)C1(O)CCCCC1 (centres undefined) [Venlafaxine-O-desmethyl] |  |  |  |  |  | 31.3 ± 3.1 | 31.2 ± 2.6
41 | O=S1OC[C@@H]2[C@H](CO1)[C@@]1(Cl)C(Cl)=C(Cl)[C@]2(Cl)C1(Cl)Cl (stereo partly drawn) [alpha-Endosulfan] |  |  |  |  | 13.6 ± 2.6 |  | 0.649 ± 0.17
42 | Cl[C@H]1[C@H](Cl)[C@@H](Cl)[C@H](Cl)[C@@H](Cl)[C@H]1Cl [delta-HCH] |  |  | 40.6 ± 13 |  |  |  | 
43 | COc1cc(-c2ccc(N)c(OC)c2)ccc1N [o-Dianisidine] |  |  |  |  | 46.7 ± 7.3 | 0.374 ± 0.16 | 15.5 ± 3
44 | Cc1ccc(OS(=O)(=O)O)cc1 [p-Tolylsulfate] |  |  |  |  |  |  | 91 ± 13
45 | C/C(=C\c1ccccc1)c1ccccc1 [trans-a-Methylstilben] |  |  |  |  |  |  | 14.3 ± 7.5
